According to ChEMBL document CHEMBL5370693, “Kinases Controlling Stability of the Oncogenic MYCN Protein” (ACS Med Chem Lett, 2023):
The source made the active and inactive calls. The calls are words filed in the database; no cut-off is given here.

How the values were obtained:
Assay type in all cases: cell-based
[1] = system: SKNBE2; assay: Inhibition of PI3K in human SKNBE2 cells assessed as degradation of MYCN protein at 5 to 10 uM incubated for 24 hrs by Western blotting analysis; conditions: dose 5-10 µM
[2] = system: SKNBE2; assay: Inhibition of PI3K in human SKNBE2 cells assessed as depletion of MYCN protein at 5 uM measured after 24 hrs in presence of CHIR-124 by Western blot analysis
[3] = system: SKNBE2; assay: Inhibition of PI3K in human SKNBE2 cells assessed as depletion of MYCN protein at 5 uM measured after 24 hrs in presence of NG25 and CHIR-124 by Western blot analysis
[4] = system: SKNBE2; assay: Inhibition of PI3K in human SKNBE2 cells assessed as depletion of MYCN protein at 5 uM measured after 24 hrs in presence of Cx4945 by Western blot analysis
[5] = system: SKNBE2; assay: Inhibition of PI3K in human SKNBE2 cells assessed as reduction in MYCN/GADPH protein ratio at 5 uM incubated for 24 hrs in presence of Cx945 by Western blotting analysis
[6] = system: SKNBE2; assay: Inhibition of PI3K in human SKNBE2 cells assessed as reduction in MYCN/GADPH protein ratio at 5 uM incubated for 24 hrs in presence of […]/CHIR-124 by Western blotting analysis
[7] = system: SKNBE2; assay: Inhibition of PI3K in human SKNBE2 cells assessed as depletion of MYCN protein at 5 uM measured after 24 hrs in presence of Cx4945 and NG25 by Western blot analysis
[8] = system: SKNBE2; assay: Inhibition of PI3K in human SKNBE2 cells assessed as reduction in MYCN/GADPH protein ratio at 5 uM incubated for 24 hrs in presence of CHIR-124 by Western blotting analysis
[9] = system: SKNBE2; assay: Inhibition of PI3K in human SKNBE2 cells assessed as depletion of MYCN protein at 5 uM measured after 24 hrs in presence of Cx4945 and CHIR-124 by Western blot analysis
[10] = system: SKNBE2; assay: Inhibition of PI3K in human SKNBE2 cells assessed as depletion of MYCN protein at 5 uM measured after 24 hrs in presence of NG25, Cx4945 and CHIR-124 by Western blot analysis
[11] = system: SKNBE2; assay: Inhibition of PI3K in human SKNBE2 cells assessed as depletion of MYCN protein at 5 uM measured after 24 hrs in presence of NG25 by Western blot analysis
[12] = molecular target: Serine/threonine-protein kinase 38-like (Homo sapiens) (UniProt Q9Y2H1); assay: Inhibition of NDR2 in human SKNBE2 cells assessed as decreased accumulation of MYCN protein measured after 24 hrs by Western blot analysis
Sequence of Serine/threonine-protein kinase 38-like (Homo sapiens) (Q9Y2H1 2-464 limits assumed): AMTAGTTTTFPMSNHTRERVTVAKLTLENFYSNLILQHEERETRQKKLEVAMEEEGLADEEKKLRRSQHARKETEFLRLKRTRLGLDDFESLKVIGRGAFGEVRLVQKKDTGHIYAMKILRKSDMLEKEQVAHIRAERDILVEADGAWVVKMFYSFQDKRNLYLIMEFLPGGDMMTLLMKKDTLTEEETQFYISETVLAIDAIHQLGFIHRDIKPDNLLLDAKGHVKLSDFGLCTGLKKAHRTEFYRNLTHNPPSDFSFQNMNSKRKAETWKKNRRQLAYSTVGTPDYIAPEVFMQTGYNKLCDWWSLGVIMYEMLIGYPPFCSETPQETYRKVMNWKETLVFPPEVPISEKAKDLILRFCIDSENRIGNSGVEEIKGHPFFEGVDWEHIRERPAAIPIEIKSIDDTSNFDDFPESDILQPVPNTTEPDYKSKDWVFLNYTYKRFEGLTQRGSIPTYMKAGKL

[13] = molecular target: T1, N-myc proto-oncogene protein (Homo sapiens) (UniProt P04198); assay: Induction of MYCN degradation in human SKNBE2 cells at 5 to 15 uM incubated for 24 hrs by Western blot analysis; conditions: dose 5-15 µM
T1 sequence (whole entry): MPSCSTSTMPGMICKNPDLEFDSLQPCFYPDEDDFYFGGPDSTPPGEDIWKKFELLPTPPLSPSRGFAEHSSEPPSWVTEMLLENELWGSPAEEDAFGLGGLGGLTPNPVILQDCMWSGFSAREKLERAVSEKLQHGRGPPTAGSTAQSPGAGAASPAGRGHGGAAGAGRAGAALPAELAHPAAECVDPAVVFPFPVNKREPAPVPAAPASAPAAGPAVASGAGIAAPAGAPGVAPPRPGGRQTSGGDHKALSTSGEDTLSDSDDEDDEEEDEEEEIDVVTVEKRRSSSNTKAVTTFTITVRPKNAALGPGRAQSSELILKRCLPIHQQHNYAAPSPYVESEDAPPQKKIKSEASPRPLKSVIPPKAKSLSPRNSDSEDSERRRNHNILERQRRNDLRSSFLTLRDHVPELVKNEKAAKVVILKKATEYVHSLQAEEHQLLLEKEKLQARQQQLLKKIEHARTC

[14] = molecular target: T1, N-myc proto-oncogene protein (Homo sapiens); assay: Induction of MYCN degradation in human SKNBE2 cells at 5 to 50 uM incubated for 24 hrs by Western blot analysis; conditions: dose 5-50 µM
[15] = molecular target: T2, Serine/threonine-protein kinase Chk1 (Homo sapiens) (UniProt O14757); assay: Inhibition of CHK1 in human SKNBE2 cells assessed as depletion of MYCN protein at >1 uM incubated for 24 hrs by Western blotting analysis
T2 sequence (whole entry): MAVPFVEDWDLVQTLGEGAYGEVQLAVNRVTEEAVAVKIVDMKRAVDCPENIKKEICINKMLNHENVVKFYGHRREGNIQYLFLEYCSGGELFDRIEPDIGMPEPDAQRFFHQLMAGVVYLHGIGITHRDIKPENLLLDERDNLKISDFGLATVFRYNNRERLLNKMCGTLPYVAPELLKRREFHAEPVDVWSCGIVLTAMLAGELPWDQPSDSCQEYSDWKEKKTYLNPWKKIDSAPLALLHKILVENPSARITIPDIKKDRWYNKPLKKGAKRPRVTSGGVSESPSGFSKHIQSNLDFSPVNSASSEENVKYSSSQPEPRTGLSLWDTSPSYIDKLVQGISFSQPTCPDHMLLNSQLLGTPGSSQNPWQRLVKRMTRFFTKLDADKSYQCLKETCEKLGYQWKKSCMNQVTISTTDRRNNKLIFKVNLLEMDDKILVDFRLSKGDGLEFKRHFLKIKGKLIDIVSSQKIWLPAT

[16] = molecular target: T1, N-myc proto-oncogene protein (Homo sapiens); assay: Induction of MYCN degradation in human SKNBE2 cells at 45 uM incubated for 24 hrs by Western blot analysis
[17] = molecular target: Serine/threonine-protein kinase 38-like (Homo sapiens) (UniProt Q9Y2H1); assay: Binding affinity to STK38L in human SKNBE2 cells assessed as effect on thermal stability at 49 degC incubated for 3 hrs by CETSA assay
[18] = molecular target: Serine/threonine-protein kinase 38-like (Homo sapiens) (UniProt Q9Y2H1); assay: Inhibition of NDR2 in human SKNBE2 cells assessed as depletion of MYCN protein at 10 uM measured after 24 hrs in presence of BEZ235 by Western blot analysis
[19] = molecular target: Serine/threonine-protein kinase 38-like (Homo sapiens) (UniProt Q9Y2H1); assay: Inhibition of NDR2 in human SKNBE2 cells assessed as depletion of MYCN protein at 10 uM measured after 24 hrs in presence of CHIR-124 and BEZ235 by Western blot analysis
[20] = molecular target: Serine/threonine-protein kinase 38-like (Homo sapiens) (UniProt Q9Y2H1); assay: Inhibition of NDR2 in human SKNBE2 cells assessed as depletion of MYCN protein at 10 uM measured after 24 hrs in presence of BEZ235 and Cx4945 by Western blot analysis
[21] = molecular target: Serine/threonine-protein kinase 38-like (Homo sapiens) (UniProt Q9Y2H1); assay: Inhibition of NDR2 in human SKNBE2 cells assessed as depletion of MYCN protein at 10 uM measured after 24 hrs in presence of CHIR-124, BEZ235 and Cx4945 by Western blot analysis
[22] = molecular target: Serine/threonine-protein kinase 38-like (Homo sapiens) (UniProt Q9Y2H1); assay: Inhibition of NDR2 in human SKNBE2 cells assessed as depletion of MYCN protein at 10 uM measured after 24 hrs in presence of CHIR-124 by Western blot analysis
[23] = molecular target: Serine/threonine-protein kinase 38-like (Homo sapiens) (UniProt Q9Y2H1); assay: Inhibition of NDR2 in human SKNBE2 cells assessed as depletion of MYCN protein at 10 uM measured after 24 hrs in presence of Cx4945 by Western blot analysis
[24] = molecular target: Serine/threonine-protein kinase 38-like (Homo sapiens) (UniProt Q9Y2H1); assay: Inhibition of NDR2 in human SKNBE2 cells assessed as depletion of MYCN protein at 10 uM measured after 24 hrs in presence of CHIR-124 and Cx4945 by Western blot analysis
[25] = system: SKNBE2; assay: Inhibition of CK2 in human SKNBE2 cells assessed as reduction in MYCN/GADPH protein ratio at 20 uM incubated for 24 hrs in presence of CHIR-124/BEZ235 by Western blotting analysis
[26] = molecular target: T1, N-myc proto-oncogene protein (Homo sapiens); assay: Induction of MYCN degradation in human SKNBE2 cells at 5 uM incubated for 24 hrs by Western blot analysis
[27] = system: SKNBE2; assay: Inhibition of PI3K in human SKNBE2 cells assessed as degradation of MYCN protein at 10 to 15 uM incubated for 24 hrs by Western blotting analysis; conditions: dose 10-15 µM
[28] = molecular target: T1, N-myc proto-oncogene protein (Homo sapiens); assay: Induction of MYCN degradation in human SKNBE2 cells incubated for 24 hrs by Western blot analysis; conditions: dose 1-50 µM

Cn1c(=O)n(-c2ccc(C(C)(C)C#N)cc2)c2c3cc(-c4cnc5ccccc5c4)ccc3ncc21 was tested. Which inhibition [1] did it give?
Its inhibition is “inactive”.

What about the inhibition [2] of the same compound?
The inhibition was “Active”.

What about the inhibition [3] of the same compound?
The inhibition was “Active”.

And the inhibition [4]?
Its inhibition is “Active”.

And the inhibition [5]?
Its inhibition is “Active”.

What about the inhibition [6] of the same compound?
Its inhibition is “Active”.

And the inhibition [7]?
The inhibition was “Active”.

And the inhibition [8]?
Its inhibition is “Active”.

What about the inhibition [9] of the same compound?
Its inhibition is “Active”.

And the inhibition [10]?
Its inhibition is “Active”.

What about the inhibition [11] of the same compound?
Its inhibition is “Active”.

How did the inhibition [12] turn out when COc1cc(N2CCC(N3CCN(C)CC3)CC2)ccc1Nc1ncc(Cl)c(Nc2ccccc2S(=O)(=O)C(C)C)n1 was run?
The inhibition was “Dose-Dependent Effect”.

Which Activity [13] does the source give for CCCCCCOc1ccc2c(=O)c(-c3ccc(O)c(O)c3)coc2c1 here?
Its Activity is “Active”.

With CCCOc1ccc2c(=O)c(-c3ccc(O)c(O)c3)coc2c1 as the compound, how does the Activity [14] read?
Its Activity is “Active”.

Cn1cc(-c2[nH]c3cc(NC(=O)[C@H](N)C4CCCCC4)cc4c3c2C=NNC4=O)cn1 was tested. Which inhibition [15] did it give?
Its inhibition is “Active”.

How did the Activity [16] turn out when CC(C)CCOc1ccc2occ(-c3ccc(O)c(O)c3)c(=O)c2c1 was run?
The Activity was “Active”.

How did the Activity [17] turn out when CCN1CCN(Cc2ccc(NC(=O)c3ccc(C)c(Oc4ccnc5[nH]ccc45)c3)cc2C(F)(F)F)CC1 was run?
Its Activity is “inactive”.

What about the inhibition [12] of the same compound?
Its inhibition is “Dose-Dependent Effect”.

What about the inhibition [18] of the same compound?
The inhibition was “Active”.

And the inhibition [19]?
Its inhibition is “Active”.

What about the inhibition [20] of the same compound?
The inhibition was “Active”.

What about the inhibition [21] of the same compound?
The inhibition was “Active”.

What about the inhibition [22] of the same compound?
Its inhibition is “Active”.

And the inhibition [23]?
Its inhibition is “inactive”.

Which results are given for O=C(O)c1ccc2c(c1)nc(Nc1cccc(Cl)c1)c1ccncc12?
inhibition [24]: Active; inhibition [25]: Active

For CCN1CCN(c2ccc(Nc3cc(N(C)C(=O)Nc4c(Cl)c(OC)cc(OC)c4Cl)ncn3)cc2)CC1, which inhibition [12] is on record?
The inhibition was “Dose-Dependent Effect”.

With CC(C)CCOc1ccc2c(c1)OCC(c1ccc(O)c(O)c1)C2 (stereo not given) as the compound, how does the Activity [26] read?
Its Activity is “Active”.

For CS(=O)(=O)N1CCN(Cc2cc3nc(-c4cccc5[nH]ncc45)nc(N4CCOCC4)c3s2)CC1, which inhibition [27] is on record?
The inhibition was “inactive”.

How did the Activity [28] turn out when COc1cc(C)c(Sc2cnc(NC(=O)c3ccc(CNC(C)C(C)(C)C)cc3)s2)cc1C(=O)N1CCN(C(C)=O)CC1 (stereo not given) was run?
Its Activity is “Dose-Dependent Effect”.
